Data: patent US6503935B1, “Imidazoles and related compounds as α1A agonists” (Abbott Laboratories, priority 1998, dated 2003)
Counter-ions that a name gives are not always drawn. Like-named read-outs stand apart in the source and are kept apart here.

Assays:
[1] = molecular target: T1, α1b (hamster receptor expressed in mouse fibroblasts) (Mesocricetus auratus, UniProt P18841); assay: Radioligand binding with [3H]-prazosin, α1b; conditions: read-out: Radioligand Binding Ki α1b (Hamster)
T1 construct: expressed in transfected cells; host or cells: mouse fibroblasts
T1 sequence (P18841 1-515): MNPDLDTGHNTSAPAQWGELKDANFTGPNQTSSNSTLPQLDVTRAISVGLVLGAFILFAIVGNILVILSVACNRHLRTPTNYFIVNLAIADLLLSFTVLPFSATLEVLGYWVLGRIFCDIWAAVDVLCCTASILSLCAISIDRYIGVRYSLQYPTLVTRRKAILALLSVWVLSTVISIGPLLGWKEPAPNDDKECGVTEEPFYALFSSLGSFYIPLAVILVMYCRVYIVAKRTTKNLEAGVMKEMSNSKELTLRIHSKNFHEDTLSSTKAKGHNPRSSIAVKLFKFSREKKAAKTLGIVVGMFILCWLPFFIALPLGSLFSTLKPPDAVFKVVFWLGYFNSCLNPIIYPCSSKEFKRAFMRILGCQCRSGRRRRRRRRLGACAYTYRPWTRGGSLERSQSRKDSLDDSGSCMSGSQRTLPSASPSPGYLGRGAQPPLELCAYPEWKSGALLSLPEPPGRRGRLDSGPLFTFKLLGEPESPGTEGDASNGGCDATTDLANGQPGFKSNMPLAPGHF
How it was run: (§1)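 Radioligand binding with [3H]-prazosin: α1A from rat submaxillary gland; α1b hamster receptor and α1d rat receptor, each expressed in mouse fibroblasts.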

[2] = molecular target: T2, α1d (rat receptor expressed in mouse fibroblasts) (Rattus norvegicus, UniProt P23944); assay: Radioligand binding with [3H]-prazosin, α1d; conditions: read-out: Radioligand Binding Ki α1d (Rat)
T2 construct: expressed in transfected cells; host or cells: mouse fibroblasts
T2 sequence (P23944 1-561): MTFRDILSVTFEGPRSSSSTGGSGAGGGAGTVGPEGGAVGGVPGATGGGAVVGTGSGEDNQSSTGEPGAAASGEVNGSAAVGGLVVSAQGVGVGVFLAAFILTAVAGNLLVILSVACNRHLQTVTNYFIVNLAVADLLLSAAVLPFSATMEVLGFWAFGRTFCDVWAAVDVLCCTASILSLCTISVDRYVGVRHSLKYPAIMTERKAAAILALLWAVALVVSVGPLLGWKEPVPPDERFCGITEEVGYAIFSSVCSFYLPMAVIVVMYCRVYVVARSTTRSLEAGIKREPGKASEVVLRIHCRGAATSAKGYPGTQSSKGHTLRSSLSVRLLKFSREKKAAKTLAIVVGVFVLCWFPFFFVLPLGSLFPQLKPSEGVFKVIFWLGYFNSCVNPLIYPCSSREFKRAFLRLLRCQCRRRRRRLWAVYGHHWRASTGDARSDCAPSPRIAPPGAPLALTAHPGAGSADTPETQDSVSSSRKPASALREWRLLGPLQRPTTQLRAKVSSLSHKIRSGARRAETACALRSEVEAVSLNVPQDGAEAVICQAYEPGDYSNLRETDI
How it was run: as §1

[3] = molecular target: T3, α1A (rat epididymal vas deferens) (Rattus norvegicus, UniProt P43140); assay: cell-based; conditions: rat epididymal vas deferens (values marked *); read-out: Agonist Tissue Response (pD2) α1A, test performed using rat epididymal vas deferens (converted)
T3 sequence (P43140 1-466): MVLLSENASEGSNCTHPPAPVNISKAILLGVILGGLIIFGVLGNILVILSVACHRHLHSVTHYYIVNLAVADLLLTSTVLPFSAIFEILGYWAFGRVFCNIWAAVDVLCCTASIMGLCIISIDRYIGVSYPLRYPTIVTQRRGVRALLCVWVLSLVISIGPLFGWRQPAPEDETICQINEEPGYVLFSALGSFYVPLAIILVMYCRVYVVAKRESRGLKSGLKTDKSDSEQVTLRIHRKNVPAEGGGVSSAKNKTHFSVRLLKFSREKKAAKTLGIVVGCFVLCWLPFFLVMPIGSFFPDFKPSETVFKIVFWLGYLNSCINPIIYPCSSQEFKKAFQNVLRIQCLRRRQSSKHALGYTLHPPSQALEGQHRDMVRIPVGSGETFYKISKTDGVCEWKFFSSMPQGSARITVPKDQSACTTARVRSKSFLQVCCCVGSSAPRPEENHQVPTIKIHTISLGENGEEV

α1D (rat aorta) = molecular target: T4, α1D (rat aorta) (Rattus norvegicus, UniProt P23944); assay: Agonist contraction of smooth muscle tissue, rat aorta; type: cell-based; conditions: read-out: Agonist Tissue Response (pD2) α1D (rat aorta) (converted)
T4 construct: α1B (rat spleen) and α1D (rat aorta) receptors; from tissue; host or cells: rat aorta strips, endothelium removed
T4 sequence (P23944 1-561): T2 sequence (P23944 1-561)

[4] = molecular target: T5, α1A (rat submaxillary gland) (Rattus norvegicus, UniProt P43140); assay: Radioligand binding with [3H]-prazosin, α1A
T5 construct: α1A (rat submaxillary gland); from tissue; host or cells: rat submaxillary gland
T5 sequence (P43140 1-466): T3 sequence (P43140 1-466)
How it was run: as §1

α1B (rat spleen) = molecular target: T6, α1B (rat spleen) (Rattus norvegicus, UniProt P15823); assay: Agonist contraction of smooth muscle tissue, rat spleen; type: cell-based; conditions: read-out: Agonist Tissue Response (pD2) α1B (rat spleen) (converted)
T6 construct: α1B (rat spleen) and α1D (rat aorta) receptors; from tissue; host or cells: rat spleen
T6 sequence (P15823 1-515): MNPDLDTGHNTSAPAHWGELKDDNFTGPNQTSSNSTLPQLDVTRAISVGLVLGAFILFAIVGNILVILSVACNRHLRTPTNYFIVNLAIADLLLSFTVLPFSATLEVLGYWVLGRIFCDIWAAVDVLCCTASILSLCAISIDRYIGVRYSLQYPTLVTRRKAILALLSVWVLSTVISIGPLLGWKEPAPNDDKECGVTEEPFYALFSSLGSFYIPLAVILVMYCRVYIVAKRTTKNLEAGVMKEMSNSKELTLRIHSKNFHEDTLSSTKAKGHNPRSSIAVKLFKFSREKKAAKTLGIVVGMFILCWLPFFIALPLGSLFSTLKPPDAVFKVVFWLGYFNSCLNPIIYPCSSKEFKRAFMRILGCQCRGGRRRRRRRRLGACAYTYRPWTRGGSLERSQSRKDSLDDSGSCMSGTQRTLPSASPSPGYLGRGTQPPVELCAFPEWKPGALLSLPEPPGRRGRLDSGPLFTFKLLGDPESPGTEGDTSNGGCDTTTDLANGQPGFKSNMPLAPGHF

Anesthetized Dogs [5] = assay: Urethral pressure profile in anesthetized dogs; type: in vivo, dog; conditions: increasing iv doses, FIG. 1
Description: Assessment of Urethral Pressure Profile in Anesthetized Dogs
Dogs instrumented and anesthetized as decribed above were placed in left lateral recumbency and a dual pressure sensor catheter (SPC-771, Millar Instruments, Houston, Tex.) was inserted into the urethra and advanced into the bladder. The proximal pressure sensor was interfaced to a MI2 computerized data acquisition system for the measurement of lower urinary tract pressures. At a resting intravesical pressure of approximately 5 cm of H2O, urethral pressure was measured from the sensor as the catheter was withdrawn using a modified syringe pump (Model 22, Harvard Apparatus, South Natick, Mass.) at its maximal rate of 0.83 mm/sec. Measurement from the proximal sensor allowed easy reinsertion as the distal 5 cm of the catheter remains in the urethra after the total profile has been obtained. Three resting urethral pressure profiles were obtained at 5 minute intervals before dosing, then a single profile was initiated 30 sec after each increasing iv dose during the time corresponding to the maximum arterial pressure effects of that dose. The increase in arterial pressure seen after each agonist dose was allowed to return to baseline before the next dose was given.

Anesthetized Dogs [6] = assay: Intraurethral pressure (IUP) in anesthetized dogs; type: in vivo, dog; conditions: Canis lupus familiaris; iv dose causing a maximum increase in IUP of 5 mm Hg, anesthetized female dogs; read-out: Mean IUP ED5
Anesthetized Dogs [7] = assay: Mean arterial pressure (MAP) in anesthetized dogs; type: in vivo, dog; conditions: iv dose causing a maximum increase in MAP of 20 mm Hg, anesthetized female dogs
Description: In vivo Functional Assays-Assessment of Intrurethral Pressure (IUP) and Mean Arterial Pressure (MAP) in Anesthetized Dogs
Female dogs (Marshall Farms, North Rose, N.Y.) greater that 2 years of age and weighing between 12 and 15 kg were used in these studies. At least 2 weeks prior to any agonist dosing, dogs were instrumented for the chronic measurement of arterial blood pressure by implanting a telemetry transducer/transmitter (TA11PA-C40, Data Sciences International, St. Paul, Minn.) into a carotid artery.
On the test day, dogs fasted since the previous afternoon were pre-anesthetized with thiopental sodium 15 mg/kg i.v. (Pentothal™, Abbott) and intubated. Anesthesia was maintained by allowing the dog to spontaneously breathe a mixture of isoflurane (2.5 to 3 volume %) and oxygen delivered by a Narkomed Standard anesthesia system (North American Drager, Telford, Pa.). An Abbocath-T™ i.v. catheter (18-G, Abbott) was inserted into the cephalic vein for the administration of agonists. A telemetry receiver (RA1310, DataSciences) was placed under the head of each dog and was interfaced to a computerized data acquisition system (Modular Instruments Inc.(MI2), Malvern, Pa.) which allowed for the continuous calibrated recording of arterial blood pressure which was electronically filtered to determine its mean value (MAP).
Dogs with chronic telemetry implants anesthetized as described above were placed in dorsal recumbency and a balloon catheter was inserted into the urethral orifice and advanced approximately 15 cm until the tip was well inside the bladder. The balloon was then inflated with 1 ml of room air and the catheter slowly withdrawn until resistance (corresponding to the bladder neck) was evident. The balloon was then deflated and the catheter withdrawn an additional 2 cm. The balloon was then reinflated and its catheter port connected to a Gould Statham P23Dd pressure transducer interfaced to a computerized data acquisition system (Modular Instruments, Inc., Malvern, Pa.) for the measurement of intraurethral pressure. Increasing iv doses of test agonists were administered and the maximum effect of each dose on IUP was recorded. The effect of each dose was allowed to return to baseline before the next dose was given.
From the resulting dose response curve, an ED5 value, for the dose causing a maximum increase in IUP of 5 mm Hg, could be estimated. An ED20 value for the dose causing a maximum increase in MAP of 20 mm Hg could also be estimated. A selectivity ratio of MAP ED20 vs. IUP ED5 was calculated.

SMILES: COc1ccc2c(c1NS(C)(=O)=O)CCCC2c1c[nH]cn1 (stereo not drawn) [Example 1, N-[5-(1H-imidazol-4-yl)-2-methoxy-5,6,7,8-tetrahydro-1-naphthalenyl]methanesulfonamide, hydrochloride]
- Ki [1]: 1.7 µM
- Ki [2]: 0.482 µM
- EC50 [3]: > 1000 µM
- EC50 (α1D (rat aorta)): 5.5 µM
- Ki [4]: 0.5 µM
- EC50 (α1B (rat spleen)): 955 µM

SMILES: CS(=O)(=O)Nc1c(O)ccc2c1CCCC2c1c[nH]cn1 (stereo not drawn) [Example 2, N-[2-hydroxy-5-(1H-imidazol-4-yl)-5,6,7,8-tetrahydro-1-naphthalenyl]methanesulfonamide, hydrochloride]
- Ki [1]: 2.52 µM
- Ki [2]: 1.26 µM
- EC50 [3]: 0.017 µM
- EC50 (α1D (rat aorta)): 1.91 µM
- Ki [4]: 0.0361 µM

SMILES: Cc1nc(C2CCCc3c2ccc(O)c3NS(C)(=O)=O)c[nH]1 (stereo not drawn) [Example 3, N-[2-hydroxy-5-(2-methyl-1H-imidazol-4-yl)-5,6,7,8-tetrahydro-1-naphthalenyl]methanesulfonamide, hydrochloride]
- Ki ([1]; hamster receptor expressed in mouse fibroblasts, [3H]-prazosin): 50.4 µM
- Ki ([2]; rat receptor expressed in mouse fibroblasts, [3H]-prazosin): 8.29 µM
- EC50 [3]: 1.95 µM
- EC50 (α1D (rat aorta); rat aorta, endothelium removed): 28.2 µM
- Ki ([4]; rat submaxillary gland, [3H]-prazosin): 0.991 µM
- EC50 (α1B (rat spleen); rat spleen): 12.9 µM

SMILES: Cn1cncc1C1CCCc2c1ccc(O)c2NS(C)(=O)=O (stereo not drawn) [Example 4, N-[2-hydroxy-5-(1-methyl-1H-imidazol-5-yl)-5,6,7,8-tetrahydro-1-naphthalenyl]methanesulfonamide, hydrochloride]
- Ki [1]: 31.6 µM
- Ki [2]: 31.6 µM
- EC50 [3]: 309 µM
- EC50 (α1D (rat aorta)): 95.5 µM
- Ki [4]: 24.6 µM
- EC50 (α1B (rat spleen)): > 1000 µM

SMILES: CCn1cnc(C2CCCc3c2ccc(O)c3NS(C)(=O)=O)c1.Cl (stereo not drawn) [Example 6, N-[5-(1-ethyl-1H-imidazol-4-yl)-2-hydroxy-5,6,7,8-tetrahydro-1-naphthalenyl]methanesulfonamide, hydrochloride]
- Ki [2]: 16.7 µM
- Ki [4]: 2.08 µM
- melting point: 230 to 234 °C (dec.)

SMILES: CCCn1cnc(C2CCCc3c2ccc(O)c3NS(C)(=O)=O)c1 (stereo not drawn) [Example 7, N-[2-hydroxy-5-(1-propyl-1H-imidazol-4-yl)-5,6,7,8-tetrahydro-1-naphthalenyl]methanesulfonamide, hydrochloride]
- Ki [2]: 3.78 µM
- EC50 [3]: > 1000 µM
- Ki [4]: 0.661 µM
- EC50 (α1B (rat spleen)): > 1000 µM

SMILES: CS(=O)(=O)Nc1cccc2c1CCCC2c1c[nH]cn1.Cl (stereo not drawn) [Example 8, N-[5-(1H-imidazol-4-yl)-5,6,7,8-tetrahydro-1-naphthalenyl]methanesulfonamide, hydrochloride]
- urethral pressure profile (Anesthetized Dogs [5]): corresponding increases in the urethral pressure
- ED (5 mmHg IUP increase) (Anesthetized Dogs [6]): 0.0255 µmol/kg
- Mean MAP ED20 (Anesthetized Dogs [7]): 102 nmol/kg
